Columns and labels:
Pyrenophora teres = assay: in vivo preventive Pyrenophora teres test (barley); settings: 8 days after inoculation
Description: (§1) To produce a suitable preparation of active compound, 1 part by weight of active compound or active compound combination is mixed with the stated amounts of solvent and emulsifier, and the concentrate is diluted with water to the desired concentration.
(§2) To test for preventive activity, young plants are sprayed with the preparation of active compound or active compound combination at the stated rate of application. After the spray coating has been dried, the plants are sprayed with a spore suspension of Pyrenophora teres. The plants remain for 48 hours in an incubation cabinet at approximately 20° C. and a relative atmospheric humidity of approximately 100%. The plants are placed in the greenhouse at a temperature of approximately 20° C. and a relative atmospheric humidity of approximately 80%.
(§3) The test is evaluated 8 days after the inoculation. 0% means an efficacy which corresponds to that of the untreated control, while an efficacy of 100% means that no disease is observed.

Leptosphaeria nodorum = assay: in vivo preventive Leptosphaeria nodorum test (wheat); settings: 8 days after inoculation
Description: as §1
as §2, with “suspension of Leptosphaeria nodorum. The plants” for “suspension of Pyrenophora teres. The plants”, “of approximately 25° C. and” for “of approximately 20° C. and”
as §3

Puccinia triticina = assay: in vivo preventive Puccinia triticina test (wheat); settings: 8 days after inoculation
Description: as §1
as §2, with “Puccinia triticina.” for “Pyrenophora teres.”
as §3

Septoria tritici = assay: in vivo preventive Septoria tritici test (wheat); settings: 21 days after inoculation
Description: as §1
To test for preventive activity, young plants are sprayed with the preparation of active compound or active compound combination at the stated rate of application.
After the spray coating has been dried, the plants are sprayed with a spore suspension of Septoria tritici.
The plants remain for 48 hours in an incubation cabinet at approximately 20° C. and a relative atmospheric humidity of approximately 100% and afterwards for 60 hours at approximately 15° C. in a translucent incubation cabinet at a relative atmospheric humidity of approximately 100%.
The plants are placed in the greenhouse at a temperature of approximately 15° C. and a relative atmospheric humidity of approximately 80%.
The test is evaluated 21 days after the inoculation. 0% means an efficacy which corresponds to that of the untreated control, while an efficacy of 100% means that no disease is observed.

With `CC(C)c1ccc(Cl)cc1CN(C(=O)c1c(C(F)F)nn(C)c1F)C1CC1` [A5, N-(5-chloro-2-isopropylbenzyl)-N-cyclopropyl-3-(difluoromethyl)-5-fluoro-1-methyl-1H-pyrazole-4-carboxamide] the “Efficacy in % found” value (Pyrenophora teres; 25 ppm a.i.) was 71%, the “Efficacy in % found” value (Leptosphaeria nodorum; 6.25 ppm a.i.) was 17% and the “Efficacy in % found” value (Leptosphaeria nodorum; 12.5 ppm a.i.) was 33%. The “Efficacy in % found” value (Puccinia triticina; 7.5 ppm a.i.) was 30%, the “Efficacy in % found” value (Puccinia triticina; 15 ppm a.i.) was 50% and the “Efficacy in % found” value (Puccinia triticina; 30 ppm a.i.) was 70%. The “Efficacy in % found” value (Septoria tritici; Table A1, wheat, 20 ppm a.i.) was 10%, the “Efficacy in % found” value (Septoria tritici; Table A2, wheat, 15 ppm a.i.) was 30% and the “Efficacy in % found” value (Septoria tritici; Table A2, wheat, 30 ppm a.i.) was 50%.

`O=C(NCCc1ncc(C(F)(F)F)cc1Cl)c1ccccc1C(F)(F)F` [fluopyram] was tested, and the “Efficacy in % found” value (Pyrenophora teres; 37.5 ppm a.i.) was 43%, the “Efficacy in % found” value (Leptosphaeria nodorum; 9.375 ppm a.i.) was 0% and the “Efficacy in % found” value (Puccinia triticina; 45 ppm a.i.) was 0%. For the same compound, the “Efficacy in % found” value (Septoria tritici; Table A2, wheat, 45 ppm a.i.) was 40%.

With `OC(Cc1ccccc1Cl)(Cn1nc[nH]c1=S)C1(Cl)CC1` (stereo not drawn) [prothioconazole] the “Efficacy in % found” value (Pyrenophora teres; 50 ppm a.i.) was 0%, the “Efficacy in % found” value (Pyrenophora teres; 75 ppm a.i.) was 0% and the “Efficacy in % found” value (Leptosphaeria nodorum; 18.75 ppm a.i.) was 0%. For the same compound, the “Efficacy in % found” value (Leptosphaeria nodorum; 25 ppm a.i.) was 0%, the “Efficacy in % found” value (Puccinia triticina; 30 ppm a.i.) was 0% and the “Efficacy in % found” value (Puccinia triticina; 90 ppm a.i.) was 20%. The “Efficacy in % found” value (Septoria tritici; Table A1, wheat, 200 ppm a.i.) was 30%, the “Efficacy in % found” value (Septoria tritici; Table A2, wheat, 60 ppm a.i.) was 40% and the “Efficacy in % found” value (Septoria tritici; Table A2, wheat, 90 ppm a.i.) was 20%.

`CC(C)(C)C(O)(CCc1ccc(Cl)cc1)Cn1cncn1` (stereo not drawn) [tebuconazole] was tested, and the “Efficacy in % found” value (Pyrenophora teres; 50 ppm a.i.) was 0%, the “Efficacy in % found” value (Leptosphaeria nodorum; 25 ppm a.i.) was 0% and the “Efficacy in % found” value (Puccinia triticina; 30 ppm a.i.) was 30%. For the same compound, the “Efficacy in % found” value (Septoria tritici; Table A2, wheat, 60 ppm a.i.) was 20%.

In the case of `CON=C(C(=O)OC)c1ccccc1CON=C(C)c1cccc(C(F)(F)F)c1` [trifloxystrobin], the “Efficacy in % found” value (Septoria tritici; Table A1, wheat, 20 ppm a.i.) is reported as 30%.
